The values that follow come from patent publication US20150291598A1 (NOVARTIS AG, priority 2012, published 2015).

Read-outs that look alike come from different tables or passages of the source. Bounds are passed on as bounds.

The test relates to P. falciparum (NF54 or 3D7 strain). Briefly: Assay for P. falciparum proliferation in infected human blood cells (SYBR Green). It counts as cell-based, Plasmodium falciparum. As to conditions: NF54 or 3D7 infected human erythrocytes, 72 hours, read-out: EC50 (nM), inhibitory efficacy in delaying P. falciparum proliferation in infected human blood cells. Summed up:
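NF54 or 3D7 parasites in O+ human erythrocytes at 2.5% hematocrit and 0.3% parasitemia final, exposed to compounds 72 h at 37 °C under 93% N2/4% CO2/3% O2.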

The mark [1] stands for this setting: Plasmodium falciparum, Erythrocyte, 72 h.

`CN(C(=O)c1cn2c(-c3ccc4c(cnn4C)c3)cnc2cn1)c1ccc(F)cc1` [Compound 106, N-(4-fluorophenyl)-N-methyl-3-(1-methyl-1H-indazol-5-yl)imidazo[1,2-a]pyrazine-6-carboxamide]: the EC50 is 24 nM. With `CN(C(=O)c1cn2c(-c3ccc4c(cnn4C)c3)cnc2cn1)c1ccc(F)cc1` [Compound 107, N-(4-fluorophenyl)-N-methyl-3-(1-methyl-1H-indazol-5-yl)imidazo[1,2-a]pyrazine-6-carboxamide], the EC50 turned out to be 218 nM. Regarding `Cc1ccc(-c2cnc3cnc(C(=O)N(C)c4ccc(F)cc4)cn23)cc1` [Compound 108, N-(4-fluorophenyl)-N-methyl-3-(4-methylphenyl)imidazo[1,2-a]pyrazine-6-carboxamide], the EC50 under setting [1] was 110 nM. On to `CN(C(=O)c1cn2c(-c3ccc(Cl)cc3)cnc2cn1)c1ccc(Cl)cc1` [Compound 109, N,3-bis(4-chlorophenyl)-N-methylimidazo[1,2-a]pyrazine-6-carboxamide], for which, under setting [1], the EC50 worked out at 120 nM. The same measure, in the same setting: as for `COc1ccccc1N(C)C(=O)c1cn2c(-c3ccc(C(F)(F)F)cc3)cnc2cn1` [Compound 110, N-(2-methoxyphenyl)-N-methyl-3-[4-(trifluoromethyl)phenyl]imidazo[1,2-a]pyrazine-6-carboxamide], the figure is 188 nM; as for `O=C(c1cn2c(-c3ccc(C(F)(F)F)cc3)cnc2cn1)N1CCCc2cc(F)ccc21` [Compound 111, 6-fluoro-1-({3-[4-(trifluoromethyl)phenyl]imidazo[1,2-a]pyrazin-6-yl}carbonyl)-1,2,3,4-tetrahydroquinoline], 128 nM; as for `CN(C(=O)c1cn2c(-c3ccc(Cl)cc3)cnc2cn1)c1ccc(F)c(F)c1` [Compound 112, 3-(4-chlorophenyl)-N-(3,4-difluorophenyl)-N-methylimidazo[1,2-a]pyrazine-6-carboxamide], 103 nM. Take `Cc1ccc(-c2cnc3cnc(C(=O)N(C)c4ccc(C#N)cc4)cn23)cc1` [Compound 113, N-(4-cyanophenyl)-N-methyl-3-(4-methylphenyl)imidazo[1,2-a]pyrazine-6-carboxamide]: under setting [1], the EC50 amounted to 81 nM. In the case of `CCN(C(=O)c1cn2c(-c3ccc(C(F)(F)F)cc3)cnc2cn1)c1ccc(C#N)cc1` [Compound 114, N-(4-cyanophenyl)-N-ethyl-3-[4-(trifluoromethyl)phenyl]imidazo[1,2-a]pyrazine-6-carboxamide], under setting [1], the EC50 worked out at 76 nM.

Regarding `CC(C)c1ccc(-c2cnc3cnc(C(=O)N(C)c4ccc(C#N)cc4)cn23)cc1` [Compound 115, N-(4-cyanophenyl)-N-methyl-3-[4-(propan-2-yl)phenyl]imidazo[1,2-a]pyrazine-6-carboxamide], the EC50 under setting [1] was found to be 82 nM. Consider `CN(C(=O)c1cn2c(-c3ccc(OC(F)(F)F)cc3)cnc2cn1)c1ccc(C#N)cc1` [Compound 116, -(4-cyanophenyl)-N-methyl-3-[4-(trifluoromethoxy)phenyl]imidazo[1,2-a]pyrazine-6-carboxamide], for which, under setting [1], the EC50 came out at 230 nM. Same read-out and setting: as for `CNc1ccc(-c2cnc3cnc(C(=O)N(C)c4ccc(C#N)cc4)cn23)cc1` [Compound 117, N-(4-cyanophenyl)-N-methyl-3-[4-(methylamino)phenyl]imidazo[1,2-a]pyrazine-6-carboxamide], the figure is 92 nM; as for `CN(C(=O)c1cn2c(-c3ccc(C(C)(C)C)cc3)cnc2cn1)c1ccc(C#N)cc1` [Compound 118, 3-(4-tert-butylphenyl)-N-(4-cyanophenyl)-N-methylimidazo[1,2-a]pyrazine-6-carboxamide], 135 nM; as for `CN(C(=O)c1cn2c(-c3ccc(C(F)(F)F)cc3)cnc2cn1)c1ccccc1F` [Compound 119, N-(2-fluorophenyl)-N-methyl-3-[4-(trifluoromethyl)phenyl]imidazo[1,2-a]pyrazine-6-carboxamide], 507 nM. `CN(C(=O)c1cn2c(-c3ccc(C(C)(C)C#N)cc3)cnc2cn1)c1ccc(C#N)cc1` [Compound 120, -[4-(1-cyano-1-methylethyl)phenyl]-N-(4-cyanophenyl)-N-methylimidazo[1,2-a]pyrazine-6-carboxamide]: the EC50 under setting [1] is 147 nM. With `CN(C)c1ccc(-c2cnc3cnc(C(=O)N(C)c4ccc(F)cc4)cn23)cc1` [Compound 121, 3-[4-(dimethylamino)phenyl]-N-(4-fluorophenyl)-N-methylimidazo[1,2-a]pyrazine-6-carboxamide], the EC50 under setting [1] came out at 259 nM. Still for that read-out and setting: as for `CN(C)c1ccc(-c2cnc3cnc(C(=O)N(C)c4ccc(Cl)cc4)cn23)cc1` [Compound 122, N-(4-chlorophenyl)-3-[4-(dimethylamino)phenyl]-N-methylimidazo[1,2-a]pyrazine-6-carboxamide], the figure is 266 nM.

For the molecule `CN(C(=O)c1cn2c(-c3ccc4c(ccn4C)c3)cnc2cn1)c1ccc(C#N)cc1` [Compound 123, N-(4-cyanophenyl)-N-methyl-3-(1-methyl-1H-indol-5-yl)imidazo[1,2-a]pyrazine-6-carboxamide], the EC50 under setting [1] was determined as 387 nM. For `CN(C(=O)c1cn2c(-c3ccc(N)cc3)cnc2cn1)c1ccc(C#N)cc1` [Compound 124, 3-(4-aminophenyl)-N-(4-cyanophenyl)-N-methylimidazo[1,2-a]pyrazine-6-carboxamide], under setting [1], the EC50 is 217 nM. On the same count and under the same terms, as for `CN(C(=O)c1cn2c(-c3ccc(-c4ccco4)cc3)cnc2cn1)c1ccc(C#N)cc1` [Compound 125, N-(4-cyanophenyl)-3-[4-(furan-2-yl)phenyl]-N-methylimidazo[1,2-a]pyrazine-6-carboxamide], the figure is 369 nM; as for `CN(C(=O)c1cn2c(-c3ccc(C(F)(F)F)cc3)cnc2cn1)c1ccc(C#N)c(F)c1` [Compound 126, N-(4-cyano-3-fluorophenyl)-N-methyl-3-[4-(trifluoromethyl)phenyl]imidazo[1,2-a]pyrazine-6-carboxamide], 125 nM; as for `CN(C(=O)c1cn2c(-c3ccc4c(ccn4C)c3)cnc2cn1)c1ccc(F)c(F)c1` [Compound 127, N-(3,4-difluorophenyl)-N-methyl-3-(1-methyl-1H-indol-5-yl)imidazo[1,2-a]pyrazine-6-carboxamide], 236 nM. Consider `CS(=O)(=O)c1ccc(NC(=O)c2cn3c(-c4ccc(C(F)(F)F)cc4)cnc3cn2)cc1` [Compound 128, N-(4-methanesulfonylphenyl)-3-[4-(trifluoromethyl)phenyl]imidazo[1,2-a]pyrazine-6-carboxamide], for which the EC50 under setting [1] is greater than 10000 nM. On the same count and under the same terms, the figure for `CN(C(=O)c1cn2c(-c3ccc(S(C)(=O)=O)cc3)cnc2cn1)c1ccc(C#N)cc1` [Compound 129, N-(4-cyanophenyl)-3-(4-methanesulfonylphenyl)-N-methylimidazo[1,2-a]pyrazine-6-carboxamide] is 800 nM.

As to `COC(C)c1ccc(-c2cnc3cnc(C(=O)N(C)c4ccc(C#N)cc4)cn23)cc1` (centres unmarked) [Compound 130, N-(4-cyanophenyl)-3-[4-(1-methoxyethyl)phenyl]-N-methylimidazo[1,2-a]pyrazine-6-carboxamide], the EC50 under setting [1] amounted to 176 nM. For `CN(C(=O)c1cn2c(-c3ccc(-c4ccn[nH]4)cc3)cnc2cn1)c1ccc(S(C)(=O)=O)cc1` [Compound 131, N-(4-methanesulfonylphenyl)-N-methyl-3-[4-(1H-pyrazol-5-yl)phenyl]imidazo[1,2-a]pyrazine-6-carboxamide], the EC50 under setting [1] worked out at 140 nM. Turning to `CN(C(=O)c1cn2c(-c3ccc(Cl)cc3)cnc2cn1)c1ccc(C#N)cc1` [Compound 132, 3-(4-chlorophenyl)-N-(4-cyanophenyl)-N-methylimidazo[1,2-a]pyrazine-6-carboxamide], the EC50 under setting [1] was determined as 206 nM.

For the molecule `N#Cc1ccc(N(CCC2CCOCC2)C(=O)c2cn3c(-c4ccc(C(F)(F)F)cc4)cnc3cn2)cc1` [Compound 133, N-(4-cyanophenyl)-N-[2-(oxan-4-yl)ethyl]-3-[4-(trifluoromethyl)phenyl]imidazo[1,2-a]pyrazine-6-carboxamide], the EC50 under setting [1] is 338 nM. On to `CC(=O)c1ccc(-c2cnc3cnc(C(=O)N(C)c4ccc(C#N)cc4)cn23)cc1` [Compound 134, 3-(4-acetylphenyl)-N-(4-cyanophenyl)-N-methylimidazo[1,2-a]pyrazine-6-carboxamide], for which, under setting [1], the EC50 came to 490 nM. On the same count and under the same terms, the figure for `Cc1ccc(-c2cnc3cnc(C(=O)N(C)c4ccc(F)c(F)c4)cn23)cc1` [Compound 135, N-(3,4-difluorophenyl)-N-methyl-3-(4-methylphenyl)imidazo[1,2-a]pyrazine-6-carboxamide] is 81 nM. Same read-out and setting: the figure for `CN(C(=O)c1cn2c(-c3ccc4c(ccn4C)c3)cnc2cn1)c1ccc(F)cc1` [Compound 136, N-(4-fluorophenyl)-N-methyl-3-(1-methyl-1H-indol-5-yl)imidazo[1,2-a]pyrazine-6-carboxamide] is 320 nM. `CN(C(=O)c1cn2c(-c3ccc(C(F)(F)F)cc3)cnc2cn1)c1cccc(F)c1` [Compound 137, N-(3-fluorophenyl)-N-methyl-3-[4-(trifluoromethyl)phenyl]imidazo[1,2-a]pyrazine-6-carboxamide]: the EC50 under setting [1] stood at 226 nM. On the same count and under the same terms, the figure for `CN(C(=O)c1cn2c(-c3ccc(OCC(F)(F)F)cc3)cnc2cn1)c1ccc(C#N)cc1` [Compound 138, N-(4-cyanophenyl)-N-methyl-3-[4-(2,2,2-trifluoroethoxy)phenyl]imidazo[1,2-a]pyrazine-6-carboxamide] is 849 nM; for `COc1ccc(N(C)C(=O)c2cn3c(-c4ccc(C(F)(F)F)cc4)cnc3cn2)cc1` [Compound 139, N-(4-methoxyphenyl)-N-methyl-3-[4-(trifluoromethyl)phenyl]imidazo[1,2-a]pyrazine-6-carboxamide] it is 1160 nM.

With `CN(C(=O)c1cn2c(-c3ccc(C(F)(F)F)cc3F)cnc2cn1)c1ccc(C#N)cc1` [Compound 140, N-(4-cyanophenyl)-3-[2-fluoro-4-(trifluoromethyl)phenyl]-N-methylimidazo[1,2-a]pyrazine-6-carboxamide], the EC50 under setting [1] was found to be 436 nM.
